Source: the supplement of paper PMC11208160

experiment: recombinant barcode read abundance after kanamycin selection (control-corrected) (log10(CPM+1)); higher = more efficient recombination; sequences stand for … in AGTGCAGAGAAAATCGGCCAGTTTTCTCTGCCTGCAGTCCGCATGCCGT…AGATTTATGCAGCGGACTGCCTTTCTCCCAAAGTGATAAACCGGACAGTATCATGGACCGGTTTTCCCGGTAATCCGTATTTGCAAGGTTGGTTTCACT; site = the 11-nt target
Summary of the method: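 Targets and IS621 bridge RNA target-binding loops were paired in oligos, each with a promoter, a barcode and the J23119-driven first 104 bridge RNA bases. A vector carrying the remaining 73 bp and a T7-inducible recombinase received these by Gibson cloning, and the pool was co-electroporated into E. coli with a donor plasmid. Duplicate plates contained chloramphenicol/ampicillin LB agar (control) or chloramphenicol/ampicillin/kanamycin with 0.1 mM IPTG. Recombination efficiency comes from averaged, control-corrected counts per million of recombinant-junction barcodes, reported as log10(CPM+1).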
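Further: IS621 recombinase and bridge RNA in Escherichia coli cells.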

Row | Sequence | recombinant barcode read abundance (log10)
1 | GGGAACCCTTGGGTTCTAACCTGTTGCTC (site GGGAACCCTTA) | 0.509
2 | GGGAACCCTTGGGTTCTAACCTGTTGCTT (site GGGAACCCTAA) | 1.25
3 | GGGAACCCTTGGGTTCTAACCTGTTGCTT (site GGGAACCCTCA) | 0.386
4 | GGGAACCCTTGGGTTCTAACCTGTTGCTT (site GGGAACCCTGA) | 0.0941
5 | GGGAACCCTTGGGTTCTAACCTGTTGCTT (site GGGAACCCTTA) | 0.149
6 | GGGAAGACTTGGGTTCTAACCTGTTGCCT (site GGAAAGACTAG) | 1.56
7 | GGGAAGACTTGGGTTCTAACCTGTTGCCT (site GGCAAGACTAG) | 0.0845
8 | GGGAAGACTTGGGTTCTAACCTGTTGCCT (site GGGAAGACTAG) | 2.55
9 | GGGAAGACTTGGGTTCTAACCTGTTGCCT (site GGTAAGACTAG) | 0.333
10 | GGGAATGCTTGGGTTCTAACCTGTTGCCT (site GGGAACGCTAG) | 0.108
11 | GGGAATGCTTGGGTTCTAACCTGTTGCCT (site GGGAATGCTAG) | 2.35
12 | GGGACAGCTTGGGTTCTAACCTGTTGCCT (site GAGACAACTAG) | 0.15
13 | GGGACAGCTTGGGTTCTAACCTGTTGCCT (site GGGACAGCTAG) | 1.12
14 | GGGACCTCTTGGGTTCTAACCTGTTGCGT (site GGGACCTCTAC) | 2.68
15 | GGGACCTCTTGGGTTCTAACCTGTTGCGT (site GGGACCTCTCC) | 0.201
16 | GGGACGCCTTGGGTTCTAACCTGTTGCAT (site GAGCCGCCTAT) | 0.0802
17 | GGGACGCCTTGGGTTCTAACCTGTTGCAT (site GGGACGCCTAT) | 1.17
18 | GGGATACCTTGGGTTCTAACCTGTTGCTA (site GGGATACCTTA) | 1.37
19 | GGGATACCTTGGGTTCTAACCTGTTGCTA (site TATGGTACTAC) | 0.292
20 | GGGCACTCTTGGGTTCTAACCTGTTGCGT (site GGGCACTCTAA) | 0.559

Row | Sequence | recombinant barcode read abundance (log10)
21 | GGGCACTCTTGGGTTCTAACCTGTTGCGT (site GGGCACTCTAC) | 2.97
22 | GGGCACTCTTGGGTTCTAACCTGTTGCGT (site GGGCACTCTAG) | 0.161
23 | GGGCACTCTTGGGTTCTAACCTGTTGCGT (site GGGCACTCTAT) | 2.27
24 | GGGCTCACTTGGGTTCTAACCTGTTGCCT (site GGGCTCACTAG) | 0.983
25 | GGGCTCACTTGGGTTCTAACCTGTTGCCT (site GGTCCCACTAG) | 0.184
26 | GGGCTCCCTTGGGTTCTAACCTGTTGCCG (site GGGCTCCCTCG) | 1.92
27 | GGGCTCCCTTGGGTTCTAACCTGTTGCCG (site TACAATTCTAT) | 0.128
28 | GGGCTTACTTGGGTTCTAACCTGTTGCCT (site GAGCTTACTAG) | 0.695
29 | GGGCTTACTTGGGTTCTAACCTGTTGCCT (site GCGCTTACTAG) | 0.362
30 | GGGCTTACTTGGGTTCTAACCTGTTGCCT (site GGGCTTACTAG) | 0.178
31 | GGGCTTACTTGGGTTCTAACCTGTTGCCT (site GTGCTTACTAG) | 0.325
32 | GGGGACCCTTGGGTTCTAACCTGTTGCGG (site GGGGACCCTAC) | 2.34
33 | GGGGACCCTTGGGTTCTAACCTGTTGCGG (site GGGGACCCTCC) | 3.01
34 | GGGGACCCTTGGGTTCTAACCTGTTGCGG (site GGGGACCCTGC) | 0.667
35 | GGGGACCCTTGGGTTCTAACCTGTTGCGG (site GGGGACCCTTC) | 1.55
36 | GGGGACCCTTGGGTTCTAACCTGTTGCGT (site GGGGACCCTAC) | 3.4
37 | GGGGACCCTTGGGTTCTAACCTGTTGCGT (site GGGGACCCTCC) | 1.46
38 | GGGGACCCTTGGGTTCTAACCTGTTGCGT (site GGGGACCCTGC) | 1.44
39 | GGGGACCCTTGGGTTCTAACCTGTTGCGT (site GGGGACCCTTC) | 1.18
